Measured values from PubChem BioAssay (NCI).
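GI50 marks 50% less growth. TGI: concentration producing complete growth inhibition.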

Assays:
Assay in all cases: growth of human tumour cells (NCI), 384-well format
786-0 renal = tested on: 786-0 renal
A498 renal = tested on: A498 renal
A549 NSCLC = tested on: A549 NSCLC
ACHN renal = tested on: ACHN renal
BT-549 breast = tested on: BT-549 breast
CAKI-1 renal = tested on: CAKI-1 renal
COLO 205 colon = tested on: COLO 205 colon
DU-145 prostate = tested on: DU-145 prostate
EKVX NSCLC = tested on: EKVX NSCLC
HCT-116 colon = tested on: HCT-116 colon
HCT-15 colon = tested on: HCT-15 colon
HL-60(TB) leukemia = tested on: HL-60(TB) leukemia
HOP-62 NSCLC = tested on: HOP-62 NSCLC
HOP-92 NSCLC = tested on: HOP-92 NSCLC
HS 578T breast = tested on: HS 578T breast
HT29 colon = tested on: HT29 colon
IGROV1 ovarian = tested on: IGROV1 ovarian
K-562 leukemia = tested on: K-562 leukemia
KM12 colon = tested on: KM12 colon
M14 melanoma = tested on: M14 melanoma
MALME-3M melanoma = tested on: MALME-3M melanoma
MCF7 breast = tested on: MCF7 breast
MDA-MB-231 breast = tested on: MDA-MB-231 breast
MDA-MB-435 melanoma = tested on: MDA-MB-435 melanoma
MDA-MB-468 breast = tested on: MDA-MB-468 breast
MOLT-4 leukemia = tested on: MOLT-4 leukemia
NCI-H226 lung = tested on: NCI-H226 lung
NCI-H23 lung = tested on: NCI-H23 lung
NCI-H322M lung = tested on: NCI-H322M lung
NCI-H460 NSCLC = tested on: NCI-H460 NSCLC
NCI-H522 lung = tested on: NCI-H522 lung
OVCAR-3 ovarian = tested on: OVCAR-3 ovarian
OVCAR-4 ovarian = tested on: OVCAR-4 ovarian
OVCAR-5 ovarian = tested on: OVCAR-5 ovarian
OVCAR-8 ovarian = tested on: OVCAR-8 ovarian
PC-3 prostate = tested on: PC-3 prostate
RXF 393 renal = tested on: RXF 393 renal
SF-268 CNS = tested on: SF-268 CNS
SF-295 CNS = tested on: SF-295 CNS
SF-539 CNS = tested on: SF-539 CNS
SK-MEL-2 melanoma = tested on: SK-MEL-2 melanoma
SK-MEL-28 melanoma = tested on: SK-MEL-28 melanoma
SK-MEL-5 melanoma = tested on: SK-MEL-5 melanoma
SK-OV-3 ovarian = tested on: SK-OV-3 ovarian
SN12C renal = tested on: SN12C renal
SNB-19 CNS = tested on: SNB-19 CNS
SNB-75 CNS = tested on: SNB-75 CNS
SR leukemia = tested on: SR leukemia
SW-620 colon = tested on: SW-620 colon
T-47D breast = tested on: T-47D breast
TK-10 renal = tested on: TK-10 renal
U251 glioblastoma = tested on: U251 glioblastoma
UACC-257 melanoma = tested on: UACC-257 melanoma
UACC-62 melanoma = tested on: UACC-62 melanoma
UO-31 renal = tested on: UO-31 renal

SMILES: Cn1cc(Nc2nccc(-c3ccc4c(c3)CN(C3COC3)CC[C@H]4NC(=O)c3cn(C(C)(C)C)nn3)n2)cn1
- GI50 ([…]-0 renal): > 100 µM
- TGI (786-0 renal): > 100 µM
- GI50 (A498 renal): > 100 µM
- TGI (A498 renal): > 100 µM
- GI50 (A549 NSCLC): 60.9 µM
- TGI (A549 NSCLC): > 100 µM
- GI50 (ACHN renal): 41.9 µM
- TGI (ACHN renal): > 100 µM
- GI50 (BT-549 breast): 51.6 µM
- TGI (BT-549 breast): > 100 µM
- GI50 (CAKI-1 renal): 44.7 µM
- TGI (CAKI-1 renal): > 100 µM
- GI50 (COLO 205 colon): 37.7 µM
- TGI (COLO 205 colon): > 100 µM
- GI50 (DU-145 prostate): > 100 µM
- TGI (DU-145 prostate): > 100 µM
- GI50 (EKVX NSCLC): 28 µM
- TGI (EKVX NSCLC): > 100 µM
- GI50 (HCT-116 colon): 44.5 µM
- TGI (HCT-116 colon): > 100 µM
- GI50 (HCT-15 colon): > 100 µM
- TGI (HCT-15 colon): > 100 µM
- GI50 (HL-60(TB) leukemia): 35.1 µM
- TGI (HL-60(TB) leukemia): > 100 µM
- GI50 (HOP-62 NSCLC): > 100 µM
- TGI (HOP-62 NSCLC): > 100 µM
- GI50 (HOP-92 NSCLC): 52.7 µM
- TGI (HOP-92 NSCLC): > 100 µM
- GI50 (HS 578T breast): 84.7 µM
- TGI (HS 578T breast): > 100 µM
- GI50 (HT29 colon): 32.1 µM
- TGI (HT29 colon): > 100 µM
- GI50 (IGROV1 ovarian): 18.6 µM
- TGI (IGROV1 ovarian): 54.4 µM
- GI50 (K-562 leukemia): 11.2 µM
- TGI (K-562 leukemia): 24.6 µM
- GI50 (KM12 colon): 56 µM
- TGI (KM12 colon): > 100 µM
- GI50 (M14 melanoma): 36.5 µM
- TGI (M14 melanoma): > 100 µM
- GI50 (MALME-3M melanoma): 45.5 µM
- TGI (MALME-3M melanoma): > 100 µM
- GI50 (MCF7 breast): 20.8 µM
- TGI (MCF7 breast): > 100 µM
- GI50 (MDA-MB-231 breast): 78.1 µM
- TGI (MDA-MB-231 breast): > 100 µM
- GI50 (MDA-MB-435 melanoma): 43.2 µM
- TGI (MDA-MB-435 melanoma): > 100 µM
- GI50 (MDA-MB-468 breast): 23.7 µM
- TGI (MDA-MB-468 breast): > 100 µM
- GI50 (MOLT-4 leukemia): 15.3 µM
- TGI (MOLT-4 leukemia): 29.4 µM
- GI50 (NCI-H226 lung): 33 µM
- TGI (NCI-H226 lung): > 100 µM
- GI50 (NCI-H23 lung): 30.2 µM
- TGI (NCI-H23 lung): > 100 µM
- GI50 (NCI-H322M lung): 68 µM
- TGI (NCI-H322M lung): > 100 µM
- GI50 (NCI-H460 NSCLC): 44.2 µM
- TGI (NCI-H460 NSCLC): > 100 µM
- GI50 (NCI-H522 lung): 22.1 µM
- TGI (NCI-H522 lung): 74 µM
- GI50 (OVCAR-3 ovarian): 60.9 µM
- TGI (OVCAR-3 ovarian): > 100 µM
- GI50 (OVCAR-4 ovarian): 54.4 µM
- TGI (OVCAR-4 ovarian): > 100 µM
- GI50 (OVCAR-5 ovarian): 61.5 µM
- TGI (OVCAR-5 ovarian): > 100 µM
- GI50 (OVCAR-8 ovarian): > 100 µM
- TGI (OVCAR-8 ovarian): > 100 µM
- GI50 (PC-3 prostate): > 100 µM
- TGI (PC-3 prostate): > 100 µM
- GI50 (RXF 393 renal): 11.4 µM
- TGI (RXF 393 renal): 54.1 µM
- GI50 (SF-268 CNS): > 100 µM
- TGI (SF-268 CNS): > 100 µM
- GI50 (SF-295 CNS): > 100 µM
- TGI (SF-295 CNS): > 100 µM
- GI50 (SF-539 CNS): 49.2 µM
- TGI (SF-539 CNS): > 100 µM
- GI50 (SK-MEL-2 melanoma): 66.3 µM
- TGI (SK-MEL-2 melanoma): > 100 µM
- GI50 (SK-MEL-28 melanoma): 37.1 µM
- TGI (SK-MEL-28 melanoma): > 100 µM
- GI50 (SK-MEL-5 melanoma): 27.3 µM
- TGI (SK-MEL-5 melanoma): > 100 µM
- GI50 (SK-OV-3 ovarian): 29.5 µM
- TGI (SK-OV-3 ovarian): > 100 µM
- GI50 (SN12C renal): 46.7 µM
- TGI (SN12C renal): > 100 µM
- GI50 (SNB-19 CNS): > 100 µM
- TGI (SNB-19 CNS): > 100 µM
- GI50 (SNB-75 CNS): 45.8 µM
- TGI (SNB-75 CNS): > 100 µM
- GI50 (SR leukemia): 12.9 µM
- TGI (SR leukemia): 27.1 µM
- GI50 (SW-620 colon): 48.5 µM
- TGI (SW-620 colon): > 100 µM
- GI50 (T-47D breast): 30.9 µM
- TGI (T-47D breast): > 100 µM
- GI50 (TK-10 renal): 70.8 µM
- TGI (TK-10 renal): > 100 µM
- GI50 (U251 glioblastoma): > 100 µM
- TGI (U251 glioblastoma): > 100 µM
- GI50 (UACC-257 melanoma): 43.4 µM
- TGI (UACC-257 melanoma): > 100 µM
- GI50 (UACC-62 melanoma): 27.3 µM
- TGI (UACC-62 melanoma): > 100 µM
- GI50 (UO-31 renal): 48 µM
- TGI (UO-31 renal): > 100 µM
